Entries after “also recorded” stand apart in the source; their conditions may differ.
How the values were obtained:
[1] = target: CRBN (truncated, residues 319-427) (Homo sapiens (Human), UniProt Q96SW2); assay: NMR binding experiments (1H-15N HSQC titration); details: 15N-labeled CRBN, ligand to CRBN ratios 0, 0.5, 1.0 and 1.5, 25° C.
Procedure: All the NMR experiments were carried out on a Bruker magnet with proton frequency of 600 MHz or 700 MHz equipped with a cryo-probe. The experiments were performed at 25° C. The ^1H-^15N HSQC spectrum was collected using a standard pulse from the pulse library (Topspin version 2.1). To test whether a developed CRBN binder interacts with CRBN, titration of the compound to ^15N-labeled CRBN was carried out. The ^1H-^15N HSQC spectra of mixtures in which ligand to CRBN ratios are 0, 0.5, 1.0 and 1.5 were collected and compared. The data were collected using Topspin (ver 2.1) provided with equipment. The data were processed with topspin (ver 2.1), NMRPipe (Delaglio et al. 1995) and visualized using NMRView (Johnson 2004). The truncated CRBN: residues 319-427 was used in the NMR experiments.

truncated CRBN (319-427) = truncated CRBN (319-427) (Homo sapiens (Human), UniProt Q96SW2); assay: Fluorescence binding assay (fluorescence quenching), affinity to E3-CEREBLON (CRBN)-ubiquitin ligase; details: ubiquitination moiety, pH 6.5
truncated CRBN (319-427), sequence (Q96SW2 319-427): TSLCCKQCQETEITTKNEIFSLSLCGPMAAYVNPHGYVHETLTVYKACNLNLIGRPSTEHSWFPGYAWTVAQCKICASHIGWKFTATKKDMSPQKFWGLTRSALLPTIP
Procedure: Fluorescence quenching end point measurements were performed in black polystyrene 384-plates on Tecan Safire monochromator reader with the following settings: excitation 280 nm; excitation bandwidth 10.0 nm; emission collection 340 nm; emission bandwidth 20.0 nm; high sensitivity flash mode; integration time 40 μS; delay 0 μm. All measurements were done in duplicates; GraphPad Prism 5.03 was used for data evaluation, curve fitting, plotting and determination of IC50 values.
Serial dilutions of each tested ligands were mixed with truncated CRBN (319-427) to a final volume of 25 μL in the assay buffer (20 mM sodium phosphate buffer, pH 6.5, with 150 mM sodium chloride). The final concentration of CRBN in all assay will be 5-10 μM with DMSO level at 4%. A control lanes were prepared with only tested ligands without the addition of CRBN, top up with assay buffer to 25 μL. Plates were incubated for 5 minutes and analyzed using the monochromator plate reader.
IC50 is the compound concentration that causes 50% quenching of the desired activity.

BRD4 = BRD4 (Homo sapiens (Human), UniProt O60885); assay: Western blot analysis of BRD4 degradation in RAMOS cells; assay type: cell-based
Procedure: Ramos (ATCC, CRL-1596) cells cultured in Roswell Park Memorial Institute (RPMI) 1640 Medium supplemented with 10% Fetal bovine serum and 1% Penicillin-streptomycin at 37° C. in humidified atmosphere with 5% CO2. In 6-well plate, 1.2 million cells were treated with indicated PROTAC compounds at 0.1% final concentration (v/v) of DMSO for desired duration of time. Pelleted cells were lysed in RIPA buffer (1% Nonidet P-40, 0.5% sodium deoxycholate, 0.1% SDS in 1× Tris-buffered saline) supplemented with protease inhibitor cocktail, 0.5 U/μL Benzonase (Novagen) and 1 mM MgCl2. Lysates were incubated on ice for 10 minutes followed by 15 minutes' centrifugation at 15000×g at 4° C. Supernatant was collected and subjected to Bradford protein quantification assay. Heat-denatured lysates (50 μg total protein) were loaded on NuPAGE 3-8% Tris-Acetate SDS protein gels. Proteins were transferred to PVDF membrane using iBlot 2 Dry Blotting Device (Thermo Fisher Scientific) at 20V for 13 minutes. Membranes were processed using iBind Flex Western Device (Thermo Fisher Scientific) by following the manufacturer's guideline. Membranes were probed with anti-BRD4 (Cell Signaling, Cat. #13440S), anti-c-Myc (Cell Signaling, Cat. #5605S), anti-β-actin (Proteintech, Cat. #66009-1-lg) antibodies, and developed with anti-Rabbit IgG, HRP-linked F(ab′)2 fragment (from donkey) (GE Life Sciences, Cat. #NA-9340) or anti-mouse IgG, AP-linked Antibody (Cell Signaling Technologies, Cat. #7056S) secondary antibodies. Membranes were incubated with Amersham ECL Select Western Blotting Detection Reagent (GE life sciences, Cat. #RPN2235) and Immun-Star™ AP Chemiluminescence Kits (Biorad, Cat. #1705018), visualized under FluorChem system (Protein Simple).
The protocol was run at 4 different inhibitor concentrations: 5 μM, 1 μM, 0.3 μM, 0.1 μM, using neat DMSO as the negative control. The % BRD4 degradation in western blot analysis is graded as follows: • K: Protein degradation >70% • L: 40%≤protein degradation<70% • M: protein degradation<40%

[2] = system: RAMOS cells (Burkitt's lymphoma cell line); assay: Anti-proliferation assay (CellTiter-Glo); assay type: cell-based; details: Homo sapiens, 72 h, 3 days
Method in brief: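 RAMOS cells (3000/well) exposed to compound for 3 days at 37 °C, 5% CO2. Viability read by CellTiter-Glo luminescence; GI50, concentration giving 50% of maximal proliferation inhibition, from nonlinear regression.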

CRBN (truncated, residues 319-427), sequence (Q96SW2 319-427): as above

Row | Compound | IC50 (truncated CRBN (319-427)) | binding to CRBN in HSQC titration experiments [1] | also measured
1 | Nc1ncccc1-c1ccc2c(c1)CC(=O)N2 [Compound 045, 5-(2-aminopyridin-3-yl)indolin-2-one] | 100 to 300 µM | bind to protein CRBN; also recorded: clear binding | –
2 | Cc1cc(NCCOCCOCCOCCOc2ccc(NC(=O)C[C@@H]3N=C(c4ccc(Cl)cc4)c4c(sc(C)c4C)-n4c(C)nnc43)cc2)ncc1-c1cnc2c(c1)CC(=O)N2 [Compound 156, (S)-2-(4-(4-chlorophenyl)-2,3,9-trimethyl-6H-thieno[3,2-f][1,2,4]triazolo[4,3-a][1,4]diazepin-6-yl)-N-(4-(2-(2-(2-(2-((4-methyl-5-(2-oxo-2,3-dihydro-1H-pyrrolo[2,3-b]pyridin-5-yl)pyridin-2-yl)amino)ethoxy)ethoxy)ethoxy)ethoxy)phenyl)acetamide] | – | – | % BRD4 degradation (BRD4; 0.1 μM): M (protein degradation<40%); % BRD4 degradation (BRD4; 0.3 μM): M (protein degradation<40%); % BRD4 degradation (BRD4; 1 μM): L (40%≤protein degradation<70%); % BRD4 degradation (BRD4; 5 μM): K (Protein degradation >70%)
3 | Cc1cc(NCCOCCOCCOCCOc2ccc(NC(=O)C[C@@H]3N=C(c4ccc(Cl)cc4)c4c(sc(C)c4C)-n4c(C)nnc43)cc2)ncc1-c1ccc2c(c1)CC(=O)N2 [Compound 148, (S)-2-(4-(4-chlorophenyl)-2,3,9-trimethyl-6H-thieno[3,2-f][1,2,4]triazolo[4,3-a][1,4]diazepin-6-yl)-N-(4-(2-(2-(2-(2-((4-methyl-5-(2-oxoindolin-5-yl)pyridin-2-yl)amino)ethoxy)ethoxy)ethoxy)ethoxy)phenyl)acetamide] | – | – | % BRD4 degradation (BRD4; 0.1 μM): M (protein degradation<40%); % BRD4 degradation (BRD4; 0.3 μM): L (40%≤protein degradation<70%); % BRD4 degradation (BRD4; 1 μM): L (40%≤protein degradation<70%); % BRD4 degradation (BRD4; 5 μM): K (Protein degradation >70%)
4 | Nc1ccc(-c2ccc3c(c2)NC(=O)C3)cn1 [Compound 013, 6-(6-aminopyridin-3-yl)indolin-2-one] | > 300 µM | bind to protein CRBN; also recorded: clear binding | –
5 | Cc1sc2c(c1C)C(c1ccc(Cl)cc1)=N[C@@H](CC(=O)NCCOCCNc1ncc(-c3ccc4c(c3)CC(=O)N4)cn1)c1nnc(C)n1-2 [Compound 133, (S)-2-(4-(4-chlorophenyl)-2,3,9-trimethyl-6H-thieno[3,2-f][1,2,4]triazolo[4,3-a][1,4]diazepin-6-yl)-N-(2-(2-((5-(2-oxoindolin-5-yl)pyrimidin-2-yl)amino)ethoxy)ethyl)acetamide] | – | – | GI50 [2]: 0.001 to 0.1 µM
6 | Cc1sc2c(c1C)C(c1ccc(Cl)cc1)=N[C@@H](CC(=O)Nc1ccc(OCCOCCOCCOCCNc3ccc(-c4ccc5c(c4)CC(=O)N5)cn3)cc1)c1nnc(C)n1-2 [Compound 098, (S)-2-(4-(4-chlorophenyl)-2,3,9-trimethyl-6H-thieno[3,2-f][1,2,4]triazolo[4,3-a][1,4]diazepin-6-yl)-N-(4-(2-(2-(2-(2-((5-(2-oxoindolin-5-yl)pyridin-2-yl)amino)ethoxy)ethoxy)ethoxy)ethoxy)phenyl)acetamide] | – | – | GI50 [2]: 0.001 to 0.1 µM

Now from value to compound, other results behind:

Row | IC50 (truncated CRBN (319-427)) | Compound | binding to CRBN in HSQC titration experiments [1] | also measured
7 | > 300 µM | Nc1cnccc1-c1ccc2c(c1)NC(=O)C2 [Compound 012, 6-(3-aminopyridin-4-yl)indolin-2-one] | bind to protein CRBN; also recorded: clear binding | –
8 | 100 to 300 µM | Nc1cc(-c2ccc3c(c2)CC(=O)N3)ccn1 [Compound 040, 5-(2-aminopyridin-4-yl)indolin-2-one] | bind to protein CRBN; also recorded: clear binding | –
9 | 100 to 300 µM | Nc1cc(-c2ccc3c(c2)NC(=O)C3)ccn1 [Compound 011, 6-(2-aminopyridin-4-yl)indolin-2-one] | bind to protein CRBN; also recorded: clear binding | –

Source: patent US11542274B1, “Therapeutic compounds and methods of use thereof” (AGENCY FOR SCIENCE, TECHNOLOGY AND RESEARCH (A*STAR), priority 2019, dated 2023)
